From a melting point compilation (Tetko et al.; mined from patent text by program, amines drawn as free bases though some values may be those of a salt)

| SMILES | melting point |
| --- | --- |
| CCCCCC(c1ccc(OC)cc1OC)C(C(N)=O)c1cc(C(=O)O)ccc1C(C)(C)C (stereo not given) | 153 to 154 °C |
| CC=Cc1cccc2c(=O)c(C)c(-c3ccc(C(C)C)cc3)oc12 | 105 to 107 °C |
| O=C1NC(=S)SC1=Cc1ccc2c(c1)N(OCc1ccccc1)C(=O)CO2 | > 300 °C |
| Oc1ccc(NCCCCCCCBr)cc1 | 121 to 123 °C |
| CCCOC(=O)c1cc(=O)c2cc(OCc3cccc(OCc4ccc5ccccc5n4)c3)ccc2o1 | 109 to 110 °C |
| COc1ccccc1C1(O)OC(=O)C(c2ccc3c(c2)OCO3)=C1Cc1ccc2nsnc2c1 (stereo not given) | 172 °C |
| COc1nc(N)nc2c1ncn2C1OC(CO)C(OC(=O)C(C)(C)C)C1O (stereo not given) | 113 to 115 °C |
| O=C(NC1CCN(CCc2cccc(F)c2)C1)C12CC3CC(CC(C3)C1)C2 (stereo not given) | 87 to 89 °C |
| COc1cccc(S(=O)c2cccc(F)c2C#N)c1 (stereo not given) | 103 to 111 °C |
| CC(=O)OC1CSC(Oc2cccc(-c3cccs3)c2)C(OC(C)=O)C1OC(C)=O (stereo not given) | 122 to 123 °C |
| COc1ccc(-c2cccc3c2N(S(=O)(=O)c2ccc(OC)cc2)CC3)cc1 | 176 to 177 °C |
| COC(=O)c1cc(C(=O)OC)c(O)c([N+](=O)[O-])c1 | 74 to 76 °C |
| O=C1C(c2ccccc2)=C(c2ccccc2)C(=O)N1CCc1ccccc1 | 164 to 165 °C |
| O=CC=NNc1c(Cl)cc(C(F)(F)F)cc1Cl | 131 to 133 °C |
| COc1cc(OC(C)(C)C(=O)O)c(C=CC(=O)c2ccc(C(=O)O)cc2)cc1-c1cccs1 | 223 to 225 °C |
| CNC(=O)CC1N=C(C2CCCCC2)c2c(sc(C)c2C)-n2c(C)nnc21 (stereo not given) | 228 to 231 °C |
| O=C(Nc1ccc2c(c1)C(F)(F)C(F)(F)O2)N1CC(c2ccccc2)=C(c2ccc(OC(F)F)cc2)N1 | 155 to 159 °C |
| COc1ccc(-c2nc3cc(F)ccc3s2)cc1OC(=O)c1ccc([N+](=O)[O-])cc1 | 198 °C |
| COc1ccc(C(=O)Nc2ccc(-c3ccc4c(c3)OCO4)cc2)cc1CCCN(C)C | 190 to 192 °C |
| CCOC(=O)c1ncn2c1CN=C(c1ccccc1)c1cc(I)ccc1-2 | 221 to 222 °C |
| CC(C)c1c(CO)c(-c2ccc(F)cc2)nc2ccccc12 | 208 to 210 °C |
| Cc1cccc(NP(N)(N)=O)c1 | 159 to 162 °C |
| O=C(NCCCN1CCC(c2ccccc2)(c2ccccc2)CC1)N1CCOCC1c1ccc(F)c(F)c1 (stereo not given) | 71 to 74 °C |
| CC(C)C(=O)N[C@@H]1CCc2c(c3cc(-c4ccno4)ccc3n2Cc2cccc(F)c2)C1 | 238 to 241 °C |

Now from value to molecule:

| melting point | SMILES |
| --- | --- |
| 85 to 88 °C | Nc1ncnc2c1ncn2[C@H]1C[C@@H](CO)C1 |
| 161 °C | OC(c1ccnc2cc(Cl)ccc12)C(F)(F)F (stereo not given) |
| 160 to 163 °C | O=C(O)c1ccc(Br)cc1COc1ccccc1 |
| 288 °C | Cc1nc2cc(-c3ccnc(-c4cn(C)c(=O)n4-c4ccc(C(C)(C)C#N)cc4)c3)cnc2[nH]1 |
| 191 to 193 °C | CCOC(=O)N1CCc2nc(-c3ccncc3)cc(=O)n2CC1 |
| 223 to 225 °C | Cn1cc(-c2ccccc2)c(=O)c(-c2cccc(O)c2)c1 |
| 192 to 194 °C | Cc1cccc(Nc2cc(Nc3cccc(OCC(N)=O)c3)ncn2)c1 |
| 98 to 99 °C | N#CC(C#N)C(=O)c1ccoc1 |
| 151 to 152 °C | CNS(=O)(=O)c1cc(S(=O)(=O)NCc2ccccc2)c(Cl)cc1N |
| 183 to 185 °C | C=C(C(=O)O)c1ccc2c(c1)Cc1ccccc1-2 |
| 91 to 92 °C | COC(=O)c1ccnc(Cl)c1N |
| 151 to 152 °C | CC(=O)c1ccc(S(=O)(=O)Nc2ccc(F)cn2)cc1 |
| 141 to 145 °C | OCCCNc1cc(-c2ccnc(Nc3cccc(OC(F)(F)C(F)F)c3)n2)ccn1 |
| 190 °C | Clc1ccnc2ncnn12 |
| 130 to 131 °C | CCC(C)(C)N=C(NC#N)Nc1cc(F)cc(Cl)c1 |
| 210 to 211 °C | CCOC(=O)/C=C/c1cc(-n2cnnn2)cc(C)c1N |
